Data as given in patent publication US8946275B2, “Treatment of cancer using hypoxia activated prodrugs” (Threshold Pharmaceuticals, Inc., priority 2008, dated 2015).
In brackets after ≈: the same amount, converted by molar mass. Where two headings read alike, the source gives them in different places.

What was measured:
metastatic melanoma = assay: TH-302 monotherapy in patients with metastatic melanoma; assay type: in vivo, human
Protocol: As noted, TH-302 has shown benefit in patients with metastatic melanoma. The historical response rate in first-line metastatic melanoma is about 10%, so the results of treatment with TH-302 are quite remarkable. Eleven subjects with metastatic melanoma have been treated with TH-302 monotherapy at initial doses of 575 mg/m^2 to 670 mg/m^2 as part of a 3 consecutive week dosing regimen repeated every 4 weeks. RECIST tumor assessments have been performed for eight subjects. […] Four of the eight subjects continued on-study for additional dosing cycles. Two of the three subjects with a partial response continued on-study through at least Cycle 3 and Cycle 7. The other subject discontinued with clinical deterioration associated with neurological decline from brain metastases.
A patient suffering from a primary melanoma (a skin cancer) that had metastasized to liver and lung was treated as follows. TH-302 was administered to the patient at an amount of 670 mg/m^2 using a 4 week (28 day) dosing cycle: TH-302 was administered once every week for 3 weeks, on days 1, 8, and 15, followed by a week of no TH-302 administration. The patient was administered 2 cycles of TH-302 and assessed by a CT scan.
Enrollment in the study was expanded at the MTD in patients with metastatic melanoma. TH-302 was administered intravenously over 30-60 minutes on Days 1, 8 and 15 of a 28-day cycle. Eligible patients had ECOG≦1, at least one target lesion by RECIST, and acceptable hematologic, liver, and renal function. Patients with symptomatic brain metastases were excluded unless previously treated and well controlled for at least 3 months. Nine patients with metastatic melanoma have been treated in the study. The median age was 70 (range 23-78) with 5 females and 4 males and ECOG 0/1 in 4/5 patients. […] Metastatic sites included liver in 7 patients and lung in 6 patients. All patients had received at least one prior systemic chemotherapeutic regimen. Two serious adverse events, seizures and ascites, were reported; neither was considered related to study drug. Skin adverse events were reported in 8 patients and mucosal adverse events were reported in 4 patients including one grade 3 event. Myelosuppression was not significant, with one event of grade 3/4 neutropenia and anemia and no events of grade 3/4 thrombocytopenia. Eight patients have had RECIST tumor assessments.

[1] = system: H460 human non-small cell lung cancer; assay: H460 ectopic xenograft, TH-302/docetaxel dosing schedules; assay type: in vivo, nude mice; details: single agent, TH-302 100 mg/kg ip once or Docetaxol 10 mg/kg iv once
Protocol: Anti-tumor activity was evaluated by tumor growth delay (TGD) and tumor growth inhibition (TGI). Body weight change, gross and microscopic assessment of tissue changes, and hematologic assays served for toxicity assessment. Testing in these models was conducted generally as follows. 1×10^6 (H460 human non-small cell lung cancer or HT1080 human fibrosarcoma cells) or 3×10^6 (PC-3 human prostate cancer cells) were implanted in the subcutaneous space of the right flank to obtain ectopic xenograft models. Randomization and dosing was initiated when tumors reached a certain size (100-150 mm^3). API grade of TH-302 was used in all experiments while docetaxel, gemcitabine, cisplatin, pemetrexed, and doxorubicin were purchased from commercial sources.
The H460 cells were prepared in 30% Matrigel and 70%. RPMI1640. Mice were anesthetized by isoflurane and were implanted subcutaneously with 1×10^6 cells (in 200 μl) at the flank position. We selected 110 mice bearing similar size tumors (˜100 mm^3) for the study. Mice bearing similar tumor size were randomly assigned into different groups. Treatment started on day 1 (7 days after tumor implantation) except as noted. […] Animals were observed daily and tumor measurements and body weights recorded twice weekly.

Solubility of TH-302 = assay type: physicochemical; details: organic solvent or mixture
Calu6 NSCLC = assay: Calu-6 ectopic tumor model, TH-302 with doxorubicin; assay type: in vivo, nude mice; details: Dox 4 mg/kg IV Q7Dx2; TH-302 50 mg/kg IP QDx5/wkx2wks; alone or combined
[2] = Phase 1 clinical trial of TH-302 monotherapy, dose escalation; assay type: in vivo, human
Protocol: A Phase 1 clinical trial was conducted with TH-302. The starting dose was 7.5 mg/m^2 IV over 30-60 min administered once weekly for 3 weeks of a 4 week cycle. A modified accelerated titration design was used.

[3] = system: orthotopic prostate cancer PC-3 cells; assay: Orthotopic PC-3 prostate cancer model, TH-302 with Taxol; assay type: in vivo, mice; details: single agents: Taxol 12 mg/kg; TH-302 30 or 50 mg/kg
Protocol: TH-302 was tested as monotherapy and in combination with Taxol (paclitaxel) in animals bearing highly invasive and metastatic orthotopic prostate cancer PC-3 cells. Animals were randomized into 6 groups of 8 mice each and then treated either with vehicle; Taxol (12 mg/kg, IV, twice a week for 4 consecutive weeks); TH-302 (30 or 50 mg/kg, IP, once a day for 5 days a week for 2 consecutive weeks); or Taxol in combination with TH-302 (using the same single agent regimens).

[4] = 575-670 mg/m^2, weekly x3 every 4 weeks, eight subjects assessed
[5] = expansion at MTD, 8 patients assessed
[6] = one patient, 670 mg/m^2, 2 cycles, CT scan

Cn1c(COP(=O)(NCCBr)NCCBr)cnc1[N+](=O)[O-] [TH-302, (2-bromoethyl)({[(2-bromoethyl)amino][(2-nitro-3-methylimidazol-4-yl)methoxy]phosphoryl})amine]
Partial responses (RECIST) (metastatic melanoma; [4]): Three of the eight subjects | Stable disease (RECIST) (metastatic melanoma; [4]): three of eight subjects | RECIST partial responses (metastatic melanoma; expansion at MTD, Days 1, 8, 15 of 28-day cycle, 8 patients assessed): 37% | Ongoing stable disease after 2 months of therapy (metastatic melanoma; [5]): 38% | Progressive disease (metastatic melanoma; [5]): 25% | Mucosal adverse events (metastatic melanoma; nine patients treated): 4 patients | Skin adverse events (metastatic melanoma; nine patients treated): 8 patients | Decrease in SLD of target lesions (metastatic melanoma; [6]): 53% | Reduction in area of cancer in lung and liver (metastatic melanoma; [6]): over 50% | Days to 500 mm^3 [1]: 21 days | Days to 1000 mm^3 [1]: 31 days | T/C [1]: 42.5% | TGD500, Days (vs. vehicle) [1]: 8 days | TGD1000, Days (vs. vehicle) [1]: 11 days | TGI [1]: 57.5% | Tn (tumor volume on Day n) ([1]; in mm³): 531.74 | solubility (Solubility of TH-302; ethanol, even at higher temperatures, read-out: Highest solubility of TH-302 in ethanol): ~80 mg/mL (≈ 178 mM) | solubility (Solubility of TH-302; ethanol/TWEEN 80 or ethanol/TWEEN 80/DMA, depending on the ratio, read-out: Solubility of TH-302): ≤ 300 mg/mL | Days to 500 mm^3 (Calu6 NSCLC): 29 days | Days to 1000 mm^3 (Calu6 NSCLC): 39 days | T/C (Calu6 NSCLC): 59.2% | TGD500, Days (vs. vehicle) (Calu6 NSCLC): 11 days | TGD1000, Days (vs. vehicle) (Calu6 NSCLC): 8 days | TGI (Calu6 NSCLC): 40.8% | Tn (tumor volume on Day n) (Calu6 NSCLC): 695.67 | Dose limiting toxicity (DLT) ([2]; 575 mg/m^2 weekly x3 of 4 week cycle): five of the six patients did not exhibit a DLT | Dose limiting toxicity (DLT) ([2]; 670 mg/m^2 weekly x3 of 4 week cycle): Two of five patients | Dose limiting toxicity ([2]; 940 mg/m^2 once every three weeks): two of six subjects have had a dose limiting toxicity | Patients with stable disease ([2]; Phase 1 monotherapy, all doses): 16 patients | Dose limiting toxicities ([2]; dose escalation study, monotherapy): mucositis with one grade 3 event involving the oral mucosa and one grade 3 event involving the gastrointestinal mucosa | Hematologic toxicity ([2]; monotherapy): mild and limited | Skin and mucosal toxicity ([2]; monotherapy): skin and mucosal toxicity was common at doses above 240 mg/m^2 | MTD ([2]; once every three week dosing): 670 mg/m^2 | MTD ([2]; once per week for three weeks of a four week cycle): 575 mg/m^2 | Primary tumor growth during the treatment period [3]: significantly inhibited primary tumor growth
